Key:
HMC1.2 cells = assay: HMC1.2 Proliferation Assay (CellTiter-Glo); conditions: 72 h, read-out: HMC1.2 Proliferation IC50
Procedure: 1000 HMC1.2 cells were incubated in 22 ul culture media (IMDM, 10% calf serum with Iron) in each well of a 384-well plate overnight in a tissue culture incubator (5% CO2, 37° C.). […] After 3 days incubation in tissue culture incubator, 25 ul CellTiter-Glo (Promega) solution was added to each well for ATP/cell viability measurement.
In addition, these compounds were assayed for their ability to inhibit the dependence of these cells on Kit kinase activity by disrupting their growth and proliferation.

wild type Kit = wild type Kit (Homo sapiens (Human), UniProt P10721); assay: Kit wild type assay at Km (Caliper electrophoretic mobility shift); type: biochemical; conditions: wild type Kit 2 nM, 400 uM ATP (Km), 1 uM Srctide, 25 C, 90 minutes; read-out: INH-KITWT ENZ-KM IC50 (nM) (Num)
Procedure: (§1) In order to assess the activity of chemical compounds against the relevant kinase of interest, the Caliper LifeSciences electrophoretic mobility shift technology platform is used. Fluorescently labeled substrate peptide is incubated in the presence of kinase and ATP so that a […] proportion of the peptide is phosphorylated. At the end of the reaction, the mix of phosphorylated (product) and non-phosphorylated (substrate) peptides are passed through the microfluidic system of the Caliper EZ Reader 2, under an applied potential difference. The presence of the phosphate group on the product peptide provides a difference in mass and charge between those of the substrate peptide, resulting in a separation of the substrate and product pools in the sample. As the pools pass a LEDS within the instrument, these pools are detected and resolved as separate peaks. The ratio between these peaks therefore reflects the activity of the chemical matter at that concentration in that well, under those conditions.
(§2) The reaction was stopped by the addition of 70 ul of Stop buffer (100 mM HEPES pH 7.5, 0.015% Brij 35, 35 mM EDTA and 0.2% of Coating Reagent 3 (Caliper Lifesciences)). The plate was then read on a Caliper EZReader 2 (protocol settings: −1.9 psi, upstream voltage −700, downstream voltage −3000, post sample sip 35 s).

[1] = target: Kit D816V kinase activity (Kit autophosphorylation at tyrosine 719) (Homo sapiens (Human), UniProt P10721, D816V/V560G); assay: HMC1.2 Autophosphorylation Assay (AlphaLISA phospho-Y719 c-Kit)
Chain of Kit D816V kinase activity (Kit autophosphorylation at tyrosine 719) (P10721 26-976 V560G/D816V): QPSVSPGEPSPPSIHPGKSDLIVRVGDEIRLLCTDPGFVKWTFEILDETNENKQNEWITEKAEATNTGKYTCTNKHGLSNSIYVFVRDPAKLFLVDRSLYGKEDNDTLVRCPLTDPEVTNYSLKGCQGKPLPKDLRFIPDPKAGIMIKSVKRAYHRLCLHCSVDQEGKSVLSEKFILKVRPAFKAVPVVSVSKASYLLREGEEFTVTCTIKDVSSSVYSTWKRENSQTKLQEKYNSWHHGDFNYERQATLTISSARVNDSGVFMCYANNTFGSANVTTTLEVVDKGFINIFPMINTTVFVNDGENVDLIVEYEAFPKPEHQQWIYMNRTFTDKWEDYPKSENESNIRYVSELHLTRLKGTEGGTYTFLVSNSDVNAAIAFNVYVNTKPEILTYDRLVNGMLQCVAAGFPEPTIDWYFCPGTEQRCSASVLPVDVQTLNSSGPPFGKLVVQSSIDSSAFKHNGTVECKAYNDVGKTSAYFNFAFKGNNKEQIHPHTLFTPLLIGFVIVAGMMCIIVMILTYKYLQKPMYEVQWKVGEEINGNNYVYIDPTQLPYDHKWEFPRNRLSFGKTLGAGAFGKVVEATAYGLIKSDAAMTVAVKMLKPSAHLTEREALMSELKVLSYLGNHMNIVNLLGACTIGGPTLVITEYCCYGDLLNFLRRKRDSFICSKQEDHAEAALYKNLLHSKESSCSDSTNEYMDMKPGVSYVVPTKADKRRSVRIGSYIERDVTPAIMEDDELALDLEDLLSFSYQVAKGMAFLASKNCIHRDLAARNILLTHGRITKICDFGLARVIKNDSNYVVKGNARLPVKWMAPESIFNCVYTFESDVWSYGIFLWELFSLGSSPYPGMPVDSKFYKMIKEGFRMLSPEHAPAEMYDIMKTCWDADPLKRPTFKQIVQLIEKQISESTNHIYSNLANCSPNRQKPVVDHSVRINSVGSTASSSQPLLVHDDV
Procedure: 10,000 HMC1.2 cells were incubated in 22 ul culture media (phenol-red free IMDM, no serum) in each well of a 384-well plate and serum starved overnight in a tissue culture incubator (5% CO2, 37° C.). […] After 90 minutes, 6 ul of 5× AlphaLISA Lysis Buffer (Perkin Elmer) supplemented with a protease and phosphatase inhibitor cocktail (Cell Signaling Technologies) was added to each well and shaken at 450 rpm for 15 minutes at 4° C. […] 10 ul of 100 ug/ml streptavidin donor beads (Perkin Elmer) were added to each well, blocked from light with aluminum adhesive and shaken at 300 rpm at room temperature for 2 hours. Fluorescence signal was obtained on Envision (Perkin Elmer) by AlphaScreen 384 well HTS protocol.

D816V Kit = D816V Kit (Homo sapiens (Human), UniProt P10721, D816V); assay: Kit D816V assay at Km (Caliper electrophoretic mobility shift); type: biochemical; conditions: for IC50: D816V Kit 0.5 nM, 15 uM ATP (Km), 1 uM Srctide, 25 C, 90 minutes, read-out: INH-KITD816V ENZ-KM IC50 (nM) (Num); for times more potent against the D816V mutant than against the wild-type Kit: D816V Kit versus wild-type Kit, enzyme assays at Km
Chain of D816V Kit (P10721 26-976 D816V): as the sequence (P10721 26-976 V560G/D816V) above, with G535V counted along it
Procedure: as §1, §2

Chain of wild type Kit (P10721 26-976): as the sequence (P10721 26-976 V560G/D816V) above, with G535V, V791D counted along it

IC50 (wild type Kit) [nM] | IC50 [1] [nM] | IC50 (D816V Kit) [nM] | times more potent against the D816V mutant than against the wild-type Kit (D816V Kit) | SMILES | IC50 (HMC1.2 cells) [nM]
> 1000 | > 10000 | 10 to 100 | at least 100 times | c1ccc(Cc2cnc(N3CCN(c4ncnc5[nH]cnc45)CC3)nc2)cc1 [Compound 1] | 1000 to 10000
100 to 1000 |  | 10 to 100 |  | COc1ccc2ncnc(N3CCN(c4ncc(Cc5ccccc5)cn4)CC3)c2c1 [Compound 5] | 1000 to 10000
100 to 1000 |  | 10 to 100 |  | COc1ccc2ncnc(N3CCN(c4ncc(Cc5ccccc5)cn4)[C@H](C)C3)c2c1 [Compound 7] | 1000 to 10000
100 to 1000 | 100 to 1000 | 1.01 to 10 |  | COc1cc2ncnc(N3CCN(c4ncc(Nc5ccccc5)cn4)CC3)c2cc1OC [Compound 13, 2-(4-(6,7-dimethoxyquinazolin-4-yl)piperazin-1-yl)-N-phenylpyrimidin-5-amine] | 1000 to 10000
11 to 100 |  | 1.01 to 10 |  | COc1cc2ncnc(N3CCN(c4ncc(Cc5ccc(C)cc5)cn4)C(=O)C3)c2cc1OC [Compound 22] | 1000 to 10000
100 to 1000 |  | 1.01 to 10 |  | COc1cc2ncnc(N3CCN(c4ncc(Nc5ccccc5)cn4)[C@H](C)C3)c2cc1OC [Compound 30] | 1000 to 10000
100 to 1000 |  | 1.01 to 10 |  | COc1cc2ncnc(N3CCN(c4ncc(Nc5ccc(F)cc5)cn4)CC3)c2cc1OC [Compound 42] | 1000 to 10000
100 to 1000 |  | 10 to 100 |  | COc1cc2ncnc(N3CCN(c4ncc(Cc5ccc(C(F)(F)F)cc5)cn4)CC3)c2cc1OC [Compound 88] | > 10000
100 to 1000 |  | 10 to 100 |  | COc1cc2c(N3CCN(c4ncc(Br)cn4)CC3)ncnc2cc1OCCCN1CCCC1 [Compound 107] | 1000 to 10000
11 to 100 |  | 1.01 to 10 |  | COc1cc2ncnc(N3CCN(c4ncc(Cc5ccccc5)cn4)CC3)c2cc1OCCN1CCN(C)CC1 [Compound 126] | 
< 10 |  | < 1 |  | COc1cc2ncnc(N3CCN(c4ncc(Cc5ccccc5)c(=O)[nH]4)CC3)c2cc1OCC1CCN(C)CC1 [Compound 127] | 
11 to 100 |  | 1.01 to 10 |  | COc1cc2ncnc(N3CCN(c4ncc(Cc5ccccc5)c(=O)[nH]4)CC3)c2cc1OC[C@@H]1CCCN(C)C1 [Compound 128] | 
11 to 100 |  | 1.01 to 10 | less than 5 times | COc1cc2ncnc(N3CCN(c4ncc(Cc5ccccc5)cn4)CC3)c2cc1OC1CCN(CCO)CC1 [Compound 129] | 
< 10 |  | 1.01 to 10 |  | COc1cc2ncnc(N3CCN(c4ncc(Cc5ccccc5)c(=O)[nH]4)CC3)c2cc1OCC1CN(C)CCO1 (centres unmarked) [Compound 130] | 
< 10 |  | < 1 |  | COc1cc2ncnc(N3CCN(c4ncc(Cc5ccccc5)cn4)CC3)c2cc1OCC1(F)CCN(C)CC1 [Compound 131] | 
11 to 100 |  | 1.01 to 10 |  | COc1cc2ncnc(N3CCN(c4ncc(Nc5ccc(F)cc5)cn4)CC3)c2cc1OCC1CCN(C)CC1 [Compound 132] | 
11 to 100 |  | 1.01 to 10 |  | COc1cc2ncnc(N3CCN(c4ncc(Oc5ccc(F)cc5)cn4)CC3)c2cc1OCC1CCN(C)CC1 [Compound 133] | 
< 10 |  | < 1 |  | CCOc1cc2ncnc(N3CCN(c4ncc(Cc5ccccc5)c(N)n4)CC3)c2cc1OCC1CCN(C)CC1 [Compound 135] | 
< 10 |  | < 1 | less than 5 times | CCOc1cc2ncnc(N3CCN(c4ncc(Cc5ccccc5)c(=O)[nH]4)CC3)c2cc1OCC1CCN(C)CC1 [Compound 138] | 
11 to 100 |  | 1.01 to 10 |  | COc1cc2ncnc(N3CCN(c4ncc(Cc5ccccc5)cn4)CC3)c2cc1OCC1CCN(CCO)CC1 [Compound 139] | 
11 to 100 |  | 1.01 to 10 |  | COc1cc2ncnc(N3CCN(c4ncc(Sc5ccc(F)cc5)cn4)CC3)c2cc1OCC1CCN(C)CC1 [Compound 140] | 
